Here are results for three molecules from publication PMC9040621 (2021).

SMILES strings stand for the structures.

The test system of the assay is d(CCAATTGG)2 (DNA, duplex) CCAATTGG
Put plainly: differential scanning calorimetry. To be noted: Na+ (sodium phosphate buffer); 100 μM DNA, compound/DNA = 1; free Tm 41.73 °C.
By ΔTm is commonly meant the change in melting temperature against a reference sample. Take `O=c1cc(-c2ccccc2)oc2cc(O)c(O)c(O)c12`: the ΔTm amounted to 13.88 °C.
The value for `O=c1cc(-c2ccccc2)oc2cc(O)cc(O)c12` was 12.14 °C; that for `O=c1cc(-c2ccccc2)oc2ccccc12` was -2.07 °C.
